Test results reported in ChEMBL document CHEMBL1201862, “PubChem BioAssay data set” (2004).
Activity calls are given as the source filed them.

Tests used:
[1] = cytotoxicity toward NIH3T3 fibroblasts, dose response, counter-screen, cell-based, ATP luminescence, mouse fibroblasts (AID 2010); type: functional;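 also: cells exposed to compound for about 90 hours before reading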
[2] = inhibitors of intracellular T. cruzi replication, confirmation, NIH3T3 host cells, beta-gal luminescence (AID 2044); type: functional, cell-based;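 also: intracellular parasites grown in NIH/3T3 mouse fibroblasts as host cells; luminescent beta-galactosidase reporter signal from transgenic T. cruzi replicating inside host cells; inhibitors lower the luminescence signal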
[3] = inhibitors of clade B AD8 Env fusion, dose response, cell-based, cherry-pick (AID 652062); type: functional;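 also: luciferase signal from cell-cell fusion driven by HIV-1 clade B AD8 Env; potency is for inhibitors of fusion seen as a drop in luminescence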
[4] = off-target signal loss in HeLa-CEM21 co-culture – HeLa F-luc CTL cells, cherry-picked, counter-screen for HIV-1 Env fusion inhibitor project, dose response (AID 652040); type: functional, cell-based;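 also: potency for signal decrease marking cytotoxic or nonspecific inhibition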
[5] = HEp-2 cell cytotoxicity, dose response, cytotoxicity control for RSV inhibitor project, HTS (AID 2410); type: functional; details: human respiratory syncytial virus
[6] = cells
[7] = molecular target: Glyceraldehyde-3-phosphate dehydrogenase (Homo sapiens, UniProt P04406)
Chain of Glyceraldehyde-3-phosphate dehydrogenase (P04406 whole entry): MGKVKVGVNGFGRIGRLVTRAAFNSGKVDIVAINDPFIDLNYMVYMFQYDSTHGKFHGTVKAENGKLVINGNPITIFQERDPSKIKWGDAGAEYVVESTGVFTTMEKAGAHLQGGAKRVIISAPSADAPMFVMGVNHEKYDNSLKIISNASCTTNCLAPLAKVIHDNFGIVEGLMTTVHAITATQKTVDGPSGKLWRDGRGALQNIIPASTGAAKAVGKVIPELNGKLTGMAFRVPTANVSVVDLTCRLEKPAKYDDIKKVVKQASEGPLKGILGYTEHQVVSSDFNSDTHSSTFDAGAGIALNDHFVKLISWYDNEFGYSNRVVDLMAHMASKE

[8] = molecular target: T1, Bcl-2-related protein A1 (Mus musculus, UniProt Q07440); experiment: Bfl-1 inhibitors blocking BH3 peptide binding, confirmation, biochemical, TR-FRET, mouse Bfl-1 (AID 621);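 also: TR-FRET binding of GST-Bfl-1 to FITC-labelled Bid peptide via terbium antibody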
T1 sequence (Q07440 whole entry): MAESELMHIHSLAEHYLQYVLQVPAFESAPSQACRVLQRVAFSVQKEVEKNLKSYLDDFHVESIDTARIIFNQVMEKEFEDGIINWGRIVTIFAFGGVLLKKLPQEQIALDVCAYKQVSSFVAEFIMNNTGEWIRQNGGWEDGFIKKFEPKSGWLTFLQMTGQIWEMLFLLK

[9] = molecular target: T1, Bcl-2-related protein A1; experiment: Bfl-1 binding inhibitors, SAR follow-up, biochemical, fluorescence polarization (AID 1070)
[10] = molecular target: FAD-linked sulfhydryl oxidase ALR (Homo sapiens, UniProt P55789); experiment: inhibitors of human ALR sulfhydryl oxidase, dose response, biochemical, H2O2 detection, luminescence, cherry-pick (AID 493248)
Chain of FAD-linked sulfhydryl oxidase ALR (P55789 whole entry): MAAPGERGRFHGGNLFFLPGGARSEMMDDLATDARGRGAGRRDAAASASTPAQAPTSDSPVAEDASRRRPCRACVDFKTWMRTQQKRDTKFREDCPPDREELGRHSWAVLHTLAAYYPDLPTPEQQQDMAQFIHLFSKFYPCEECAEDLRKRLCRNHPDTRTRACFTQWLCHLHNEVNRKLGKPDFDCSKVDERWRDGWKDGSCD

[11] = molecular target: T2, Protein skinhead-1 (Caenorhabditis elegans, UniProt P34707); type: functional
T2 sequence (P34707 whole entry): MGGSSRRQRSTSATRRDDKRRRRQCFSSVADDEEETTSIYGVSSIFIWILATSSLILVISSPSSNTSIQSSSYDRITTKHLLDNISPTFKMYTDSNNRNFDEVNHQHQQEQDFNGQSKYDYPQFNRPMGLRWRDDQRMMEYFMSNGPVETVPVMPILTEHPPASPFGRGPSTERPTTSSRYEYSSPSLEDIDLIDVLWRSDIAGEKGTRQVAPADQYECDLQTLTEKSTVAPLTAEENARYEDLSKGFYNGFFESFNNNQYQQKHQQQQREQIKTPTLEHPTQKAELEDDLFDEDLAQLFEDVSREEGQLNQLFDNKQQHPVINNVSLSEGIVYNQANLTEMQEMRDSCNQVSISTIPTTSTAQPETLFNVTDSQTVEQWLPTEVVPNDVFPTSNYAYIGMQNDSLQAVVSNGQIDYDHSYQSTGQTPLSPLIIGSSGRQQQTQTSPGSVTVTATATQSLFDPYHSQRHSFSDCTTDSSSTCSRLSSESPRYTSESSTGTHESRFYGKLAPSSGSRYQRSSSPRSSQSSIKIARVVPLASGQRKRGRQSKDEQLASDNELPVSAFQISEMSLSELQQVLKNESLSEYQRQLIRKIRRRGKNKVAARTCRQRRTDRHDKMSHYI

[12] = molecular target: T3, Protein Tat (Human immunodeficiency virus type 1 group M subtype B (isolate HXB2)(HIV-1), UniProt P04608); type: functional;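 also: tat binding to TAR RNA read out by fluorescence polarization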
T3 sequence (P04608 whole entry): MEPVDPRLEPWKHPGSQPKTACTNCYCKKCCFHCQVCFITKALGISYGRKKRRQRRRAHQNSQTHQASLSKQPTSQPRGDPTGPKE

[13] = molecular target: T4, Rac GTPase-activating protein 1 (Homo sapiens, UniProt Q9H0H5); experiment: MgcRacGAP GTPase-activating activity inhibitors, confirmation, biochemical, ADP Hunter fluorescence, primary and confirmatory (AID 624330); type: functional
T4 sequence (Q9H0H5 whole entry): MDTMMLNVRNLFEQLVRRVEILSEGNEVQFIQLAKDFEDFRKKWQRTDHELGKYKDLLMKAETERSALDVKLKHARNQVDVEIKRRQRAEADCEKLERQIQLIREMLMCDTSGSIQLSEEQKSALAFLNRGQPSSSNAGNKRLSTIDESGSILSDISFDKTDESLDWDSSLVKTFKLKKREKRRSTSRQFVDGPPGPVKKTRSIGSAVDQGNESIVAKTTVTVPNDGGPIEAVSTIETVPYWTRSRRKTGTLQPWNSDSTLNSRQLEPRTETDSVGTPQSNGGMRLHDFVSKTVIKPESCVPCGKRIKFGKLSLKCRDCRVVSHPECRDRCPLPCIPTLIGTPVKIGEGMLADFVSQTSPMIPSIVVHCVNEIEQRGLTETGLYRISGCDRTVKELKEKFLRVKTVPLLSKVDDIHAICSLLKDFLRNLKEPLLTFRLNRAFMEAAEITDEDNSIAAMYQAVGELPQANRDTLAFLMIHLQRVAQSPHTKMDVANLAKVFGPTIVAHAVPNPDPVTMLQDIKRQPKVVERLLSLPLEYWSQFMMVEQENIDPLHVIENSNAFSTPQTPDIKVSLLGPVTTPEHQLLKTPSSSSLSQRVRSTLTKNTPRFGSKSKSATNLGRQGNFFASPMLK

[14] = inhibitors of Vif binding to APOBEC3G peptide, primary screen, biochemical, TR-FRET, GST-Vif 1-94, biotin-A3G peptide, dose response retest (AID 1117319); type: functional;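 also: TR-FRET signal of purified GST-Vif binding a biotinylated A3G peptide; inhibitors lower the FRET signal by blocking Vif and A3G binding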
[15] = molecular target: T5, Streptokinase A (Streptococcus pyogenes serotype M1, UniProt P10520); experiment: S. pyogenes streptokinase expression inhibitors, potency, dose response, plasminogen activation absorbance, OD405 (AID 1914); type: functional, Streptococcus pyogenes M1 GAS;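 also: secreted streptokinase activity via plasminogen activation per viability signal from cell pellet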
T5 sequence (P10520 whole entry): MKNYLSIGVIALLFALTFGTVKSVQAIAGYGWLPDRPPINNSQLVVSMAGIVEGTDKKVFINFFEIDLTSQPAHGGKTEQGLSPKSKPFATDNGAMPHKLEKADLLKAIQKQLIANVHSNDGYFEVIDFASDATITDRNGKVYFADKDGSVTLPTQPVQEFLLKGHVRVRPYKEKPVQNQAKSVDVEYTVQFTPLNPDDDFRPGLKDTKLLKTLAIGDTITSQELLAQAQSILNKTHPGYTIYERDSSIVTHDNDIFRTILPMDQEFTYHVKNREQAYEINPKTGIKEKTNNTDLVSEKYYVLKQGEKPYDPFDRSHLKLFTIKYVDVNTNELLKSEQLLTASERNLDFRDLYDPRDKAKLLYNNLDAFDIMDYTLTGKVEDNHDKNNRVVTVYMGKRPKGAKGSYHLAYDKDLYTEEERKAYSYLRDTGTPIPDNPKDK

[16] = system: Streptococcus; experiment: Group A Streptococcus viability loss, dose response, counter-screen for streptokinase expression inhibitor project, luminescence, BacTiterGlo (AID 1915); type: functional, organism-based;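 also: potency for reduction of bacterial viability or growth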
[17] = system: Streptococcus sp. 'group A'; experiment: growth inhibition of control SK(-) GAS strain, dose response, counter-screen for streptokinase expression inhibitor project, luminescence, kanamycin, BacTiterGlo, confirmation (AID 1900); type: functional, organism-based
[18] = molecular target: T6, Dual specificity protein phosphatase 6 (Rattus norvegicus, UniProt Q64346); experiment: MKP-3 phosphatase inhibitors, primary screen, biochemical, rat enzyme, in vitro (AID 425)
T6 sequence (Q64346 whole entry): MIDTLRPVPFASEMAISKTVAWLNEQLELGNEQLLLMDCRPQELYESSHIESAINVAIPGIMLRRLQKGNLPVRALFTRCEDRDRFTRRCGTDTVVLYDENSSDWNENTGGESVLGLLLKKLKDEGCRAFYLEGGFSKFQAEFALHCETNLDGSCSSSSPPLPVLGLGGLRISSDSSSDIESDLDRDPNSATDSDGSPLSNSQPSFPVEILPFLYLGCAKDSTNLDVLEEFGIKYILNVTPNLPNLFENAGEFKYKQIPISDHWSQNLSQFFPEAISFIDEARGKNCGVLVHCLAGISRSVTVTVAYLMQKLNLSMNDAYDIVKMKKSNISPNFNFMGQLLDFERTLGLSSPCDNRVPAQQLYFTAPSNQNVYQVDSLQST

[19] = molecular target: T7, Cytochrome P450 1A2 (Homo sapiens, UniProt P05177);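 also: PubChem cytochrome P450 panel assay, CYP1A2 panel member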
T7 sequence (P05177 whole entry): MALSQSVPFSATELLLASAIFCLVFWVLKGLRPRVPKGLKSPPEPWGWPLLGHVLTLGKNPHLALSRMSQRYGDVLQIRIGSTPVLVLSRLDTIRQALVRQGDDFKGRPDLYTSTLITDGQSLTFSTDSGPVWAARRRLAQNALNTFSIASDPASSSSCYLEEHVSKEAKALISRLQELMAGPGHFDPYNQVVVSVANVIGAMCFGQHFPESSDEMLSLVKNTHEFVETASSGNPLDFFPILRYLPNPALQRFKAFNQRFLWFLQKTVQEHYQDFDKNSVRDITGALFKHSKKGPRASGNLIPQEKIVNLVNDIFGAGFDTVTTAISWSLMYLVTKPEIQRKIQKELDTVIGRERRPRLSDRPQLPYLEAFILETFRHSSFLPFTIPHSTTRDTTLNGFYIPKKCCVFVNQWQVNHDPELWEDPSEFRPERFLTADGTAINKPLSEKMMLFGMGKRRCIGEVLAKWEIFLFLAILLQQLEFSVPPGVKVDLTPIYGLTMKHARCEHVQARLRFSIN

For `CC(=O)c1ccc(S(=O)(=O)N2CCN(c3nc4c(C)c(C)ccc4cc3C#N)CC2)cc1`, the EC50 [1] was > 60 µM (not active), the EC50 [2] was 1.9 µM (active) and the AC50 [3] was 11.2 µM (active). The AC50 [4] was 10.3 µM (active).
With `COC(=O)C1=C(c2ccc(F)cc2F)C[C@@H]2CC[C@H]1N2C(=O)NCCOc1ccccc1Cl` the CC50 [5] was 34.5 µM (active) and the IC50 [6] was 13.9 µM (active).
With `CS(=O)(=O)c1nc(-c2ccccc2)cc(-c2ccccc2)n1` the IC50 [7] was > 100 µM (not active), the IC50 [8] was > 100 µM (not active) and the IC50 [9] was > 100 µM (not active).
With `Cc1cccc(N2C(=O)C(Cl)=C(N3CCN(CCO)CC3)C2=O)c1` the IC50 [7] was > 100 µM (not active), the IC50 [8] was 11.5 µM (active) and the IC50 [9] was 12.3 µM (active).
With `CC(=O)N1CCN(c2ccc(NCc3ccccc3)cc2)CC1` the AC50 [10] was 0.57 µM (active), the IC50 [11] was > 100 µM (inactive) and the IC50 [12] was 13.7 µM (inconclusive). The IC50 [13] was 10.5 µM (active) and the IC50 [14] was > 50.5 µM (active).
For `Cc1ccc2c(C)c(C(=O)Nc3ccc(S(=O)(=O)Nc4onc(C)c4C)cc3)oc2c1`, the CC50 [5] was 24.4 µM (active), the EC50 [15] was > 150 µM (not active) and the EC50 [16] was > 150 µM (not active). The IC50 [6] was 24.7 µM (active) and the EC50 [17] was 23.8 µM (active).
For `COc1ccc(S(=O)(=O)N2CCC(NC(=O)Nc3ccc(C)cc3)CC2)cc1`, the IC50 [18] was > 100 µM (not active) and the AC50 [19] was 31.6 µM (inconclusive).
With `O=C1C(Cl)=C(N2CCN(c3ncccn3)CC2)C(=O)N1c1ccc(Cl)c(Cl)c1` the IC50 [7] was > 100 µM (not active), the IC50 [8] was 2.46 µM (active) and the IC50 [9] was 1.9 µM (active).
